Laboratory results published in ChEMBL document CHEMBL3045333, “Asymmetric aza-Michael additions of 4-nitrophthalimide to nitroalkenes and preliminary study of the products for herbicidal activities” (2013).

What was measured:
Type in all cases: functional
Echinochloa crus-galli [1] = test: Herbicidal activity against Echinochloa crus-galli (barnyard grass) assessed as reduction of seedling height growth in light conditions at 100 ug/ml treated twice; conditions: for inhibition of growth at 100 µg/mL: Echinochloa crus-galli, read-out: GI
Echinochloa crus-galli [2] = test: Herbicidal activity against Echinochloa crus-galli (barnyard grass) assessed as reduction of seedling height growth in light conditions at 10 ug/ml treated twice; conditions: read-out: GI
Echinochloa crus-galli [3] = test: Herbicidal activity against Echinochloa crus-galli (barnyard grass) assessed as reduction of radical growth in dark conditions at 100 ug/ml treated twice; conditions: for inhibition of growth at 100 µg/mL: Echinochloa crus-galli, read-out: GI
Echinochloa crus-galli [4] = test: Herbicidal activity against Echinochloa crus-galli (barnyard grass) assessed as reduction of radical growth in dark conditions at 10 ug/ml treated twice; conditions: for inhibition of growth at 10 µg/mL: Echinochloa crus-galli, read-out: GI

SMILES | growth inhibition (GI) (Echinochloa crus-galli [1]) | inhibition of growth at 10 µg/mL (Echinochloa crus-galli [2]) | inhibition of growth at 100 µg/mL (Echinochloa crus-galli [3]) | inhibition of growth at 10 µg/mL (Echinochloa crus-galli [4]) | growth inhibition (GI) (Echinochloa crus-galli [3]) | growth inhibition (GI) (Echinochloa crus-galli [4]) | inhibition of growth at 100 µg/mL (Echinochloa crus-galli [1])
O=C1c2ccc([N+](=O)[O-])cc2C(=O)C1C(C[N+](=O)[O-])c1ccc(F)cc1 (stereo in doubt; 4bd) | 22% | 0% |  |  |  |  | 
O=C1c2ccc([N+](=O)[O-])cc2C(=O)C1C(C[N+](=O)[O-])c1ccc(F)cc1 (racemic) | 64.1% |  | 0% | 0% |  |  | 
O=C1c2ccc([N+](=O)[O-])cc2C(=O)C1C(C[N+](=O)[O-])c1ccc(Cl)cc1 (stereo in doubt; 4be) | 9.7% | 0% |  |  | 5% | 0% | 
O=C1c2ccc([N+](=O)[O-])cc2C(=O)C1C(C[N+](=O)[O-])c1cccc(Cl)c1 (centres undefined) |  | 0% | 0% | 0% |  |  | 0%
O=C1c2ccc([N+](=O)[O-])cc2C(=O)C1C(C[N+](=O)[O-])c1ccc(Cl)cc1Cl (centres undefined) |  | 0% | 10% | 5% |  |  | 0%
O=C1c2ccc([N+](=O)[O-])cc2C(=O)C1C(C[N+](=O)[O-])c1ccc(Cl)cc1 (racemic) | 55.5% |  | 10% |  |  | 5% | 
O=C1c2ccc([N+](=O)[O-])cc2C(=O)C1C(C[N+](=O)[O-])c1ccccc1Cl (centres undefined) |  | 0% | 59.6% | 0% |  |  | 93.2%
